Target: T1, GPR40 of human origin (Homo sapiens, UniProt O14842)
T1 construct: expressed in transfected cells
Experiment: Agonist action on GPR40 of human origin (intracellular Ca2+ change)
Format: cell-based
Settings: CHO cell strain stably expressing GPR40 of human origin; change in Ca2+ concentration, fluorescent calcium indicator
Method in brief: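 CHO cells stably expressing human GPR40, cultured overnight, then loaded 1 h with Calcium 4 dye plus probenecid in HEPES-buffered HBSS. Compound added in 20 mM HEPES-HBSS; intracellular Ca2+ change read by fluorescence, EC50 from dose-response of fluorescence change.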

T1 sequence (O14842 whole entry): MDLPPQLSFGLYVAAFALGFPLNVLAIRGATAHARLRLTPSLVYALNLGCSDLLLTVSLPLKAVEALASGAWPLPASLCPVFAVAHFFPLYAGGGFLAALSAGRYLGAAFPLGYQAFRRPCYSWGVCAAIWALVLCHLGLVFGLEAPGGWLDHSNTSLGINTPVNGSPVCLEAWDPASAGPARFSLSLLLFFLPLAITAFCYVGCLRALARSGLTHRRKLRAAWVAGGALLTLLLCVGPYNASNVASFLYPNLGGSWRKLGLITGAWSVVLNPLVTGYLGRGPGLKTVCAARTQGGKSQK

Row | SMILES | EC50 [nM]
1 | COc1ccc(F)cc1-c1cccc2c1CC[C@H]2Oc1ccc(-c2cc(O)n[s+]2[O-])cc1 (stereo partly drawn) [Example 56, 5-(4-(((R)-4-(5-fluoro-2-methoxyphenyl)-2,3-dihydro-1H-inden-1-yl)oxy)phenyl)-3-hydroxyisothiazole 1-oxide] | < 300
2 | COc1ccc(-c2cccc3c2CC[C@H]3Oc2ccc(-c3cc(O)n[s+]3[O-])cc2)c(Cl)c1 (stereo partly drawn) [Example 48, 5-(4-(((R)-4-(2-chloro-4-methoxyphenyl)-2,3-dihydro-1H-inden-1-yl)oxy)phenyl)-3-hydroxyisothiazole 1-oxide] | < 300
3 | Cc1cc(-c2cccc3c2CC[C@H]3Oc2ccc(-c3cc(O)n[s+]3[O-])cc2)ccc1F (stereo partly drawn) [Example 38, 5-(4-(((R)-4-(4-fluoro-3-methylphenyl)-2,3-dihydro-1H-inden-1-yl)oxy)phenyl)-3-hydroxyisothiazole 1-oxide] | < 300
4 | [O-][s+]1nc(O)cc1-c1ccc(O[C@@H]2CCc3c(Oc4ccc(OC(F)(F)F)cc4)cccc32)cc1 (stereo partly drawn) [Example 103, 3-hydroxy-5-(4-(((R)-4-(4-(trifluoromethoxy)phenoxy)-2,3-dihydro-1H-inden-1-yl)oxy)phenyl)isothiazole 1-oxide] | < 300
5 | CN(C)C(=O)c1ccc(Oc2cccc3c2CC[C@H]3Oc2ccc(-c3cc(O)n[s+]3[O-])cc2)cc1 (stereo partly drawn) [Example 137, 4-(((R)-1-(4-(3-hydroxy-1-oxidoisothiazol-5-yl)phenoxy)-2,3-dihydro-1H-inden-4-yl)oxy)-N,N-dimethylbenzamide] | < 300
6 | [O-][s+]1nc(O)cc1-c1ccc(O[C@@H]2CCc3c(Br)cccc32)cc1 (single isomer, unassigned) [Example 3] | < 300
7 | [O-][s+]1nc(O)cc1-c1ccc(OCC2=CC3(CCCCC3)CCC2)cc1 (stereo not shown) [Example 120, 3-hydroxy-5-(4-(spiro[5.5]undec-1-en-2-ylmethoxy)phenyl)isothiazole 1-oxide] | 300 to 3000
8 | COc1cc(F)ccc1-c1cccc2c1CC[C@H]2Oc1ccc(-c2cc(O)n[s+]2[O-])cc1 (stereo partly drawn) [Example 51, 5-(4-(((R)-4-(4-fluoro-2-methoxyphenyl)-2,3-dihydro-1H-inden-1-yl)oxy)phenyl)-3-hydroxyisothiazole 1-oxide] | < 300
9 | COc1cncc(Oc2cccc3c2CC[C@H]3Oc2ccc(-c3cc(O)n[s+]3[O-])cc2)c1 (stereo partly drawn) [Example 127, 3-hydroxy-5-(4-(((R)-4-((3-methoxypyridin-5-yl)oxy)-2,3-dihydro-1H-inden-1-yl)oxy)phenyl)isothiazole 1-oxide] | < 300
10 | COc1cccc(-c2cccc3c2CC[C@H]3Oc2ccc(-c3cc(O)n[s+]3[O-])cc2)c1 (stereo partly drawn) [Example 30, 5-(4-(((R)-4-(3-methoxyphenyl)-2,3-dihydro-1H-inden-1-yl)oxy)phenyl)-3-hydroxyisothiazole 1-oxide] | < 300
11 | CCOc1ccc(-c2cccc3c2CC[C@H]3Oc2ccc(-c3cc(O)n[s+]3[O-])cc2)cc1 (stereo partly drawn) [Example 7, 5-(4-(((R)-4-(4-ethoxyphenyl)-2,3-dihydro-1H-inden-1-yl)oxy)phenyl)-3-hydroxyisothiazole 1-oxide] | 300 to 3000
12 | COc1ccc(-c2cccc3c2CC[C@H]3Oc2ccc(-c3cc(O)n[s+]3[O-])cc2)c(OC)c1 (stereo partly drawn) [Example 49, 5-(4-(((R)-4-(2,4-dimethoxyphenyl)-2,3-dihydro-1H-inden-1-yl)oxy)phenyl)-3-hydroxyisothiazole 1-oxide] | < 300
13 | Cc1cc(OCCCS(C)(=O)=O)cc(C)c1-c1cccc2c1OCC2Oc1ccc(-c2cc(O)n[s+]2[O-])cc1 (single isomer, unassigned) [Example 151, 5-(4-((7-(2,6-dimethyl-4-(3-(methylsulfonyl)propoxy)phenyl)-2,3-dihydrobenzofuran-3-yl)oxy)phenyl)-3-hydroxyisothiazole 1-oxide] | < 300
14 | [O-][s+]1nc(O)cc1-c1ccc(O[C@@H]2CCc3c(-c4cccc(C(F)(F)F)c4)cccc32)cc1 (stereo partly drawn) [Example 63, 5-(4-(((R)-4-(3-trifluoromethylphenyl)-2,3-dihydro-1H-inden-1-yl)oxy)phenyl)-3-hydroxyisothiazole 1-oxide] | 300 to 3000
15 | [O-][s+]1nc(O)cc1-c1ccc(OCCc2ccc(Oc3ccccc3)cc2)cc1 (stereo not shown) [Example 162, 3-hydroxy-5-(4-(4-phenoxyphenethoxy)phenyl)isothiazole 1-oxide] | < 300
16 | CCOc1ccc(Cl)cc1-c1cccc2c1CC[C@H]2Oc1ccc(-c2cc(O)n[s+]2[O-])cc1 (stereo partly drawn) [Example 58, 5-(4-(((R)-4-(5-chloro-2-ethoxyphenyl)-2,3-dihydro-1H-inden-1-yl)oxy)phenyl)-3-hydroxyisothiazole 1-oxide] | < 300
17 | COc1ccc(Oc2cccc3c2OCC3Oc2ccc(-c3cc(O)n[s+]3[O-])cc2)cn1 (single isomer, unassigned) [Example 152-a, 3-hydroxy-5-(4-((7-((6-methoxypyridin-3-yl)oxy)-2,3-dihydrobenzofuran-3-yl)oxy)phenyl)isothiazole 1-oxide] | < 300
18 | [O-][s+]1nc(O)cc1-c1ccc(OC2COc3c(Oc4ccccc4)cccc32)cc1 (single isomer, unassigned) [Example 145-b, 3-hydroxy-5-(4-((7-phenoxy-2,3-dihydrobenzofuran-3-yl)oxy)phenyl)isothiazole 1-oxide] | 300 to 3000
19 | [O-][s+]1nc(O)cc1-c1ccc(O[C@@H]2CCc3c(-c4cccc(Cl)c4)cccc32)cc1 (stereo partly drawn) [Example 8, 5-(4-(((R)-4-(3-chlorophenyl)-2,3-dihydro-1H-inden-1-yl)oxy)phenyl)-3-hydroxyisothiazole 1-oxide] | < 300
20 | [O-][s+]1nc(O)cc1-c1ccc(O[C@@H]2CCc3c(Oc4ccccc4)cccc32)cc1 (stereo partly drawn) [Example 90, 3-hydroxy-5-(4-(((R)-4-phenoxy-2,3-dihydro-1H-inden-1-yl)oxy)phenyl)isothiazole 1-oxide] | < 300
21 | CCc1ccccc1-c1cccc2c1CC[C@H]2Oc1ccc(-c2cc(O)n[s+]2[O-])cc1 (stereo partly drawn) [Example 9, 5-(4-(((R)-4-(2-ethylphenyl)-2,3-dihydro-1H-inden-1-yl)oxy)phenyl)-3-hydroxyisothiazole 1-oxide] | < 300
22 | Cc1cncc(-c2cccc3c2CC[C@H]3Oc2ccc(-c3cc(O)n[s+]3[O-])cc2)c1 (stereo partly drawn) [Example 72, 5-(4-(((R)-4-(5-methylpyridin-3-yl)-2,3-dihydro-1H-inden-1-yl)oxy)phenyl)-3-hydroxyisothiazole 1-oxide] | < 300
23 | N#Cc1ccc(Oc2cccc(COc3ccc(-c4cc(O)n[s+]4[O-])cc3)c2)cc1 (stereo not shown) [Example 125, 4-(3-((4-(3-hydroxy-1-oxidoisothiazol-5-yl)phenoxy)methyl)phenoxy)benzonitrile] | < 300
24 | [O-][s+]1nc(O)cc1-c1ccc(O[C@@H]2CCc3c(-c4ccc(OCc5ccccc5)c(F)c4)cccc32)cc1 (stereo partly drawn) [Example 57, 5-(4-(((R)-4-(4-benzyloxy-3-fluorophenyl)-2,3-dihydro-1H-inden-1-yl)oxy)phenyl)-3-hydroxyisothiazole 1-oxide] | 300 to 3000
25 | Cc1ccc(Oc2cccc3c2CC[C@H]3Oc2ccc(-c3cc(O)n[s+]3[O-])cc2)cc1 (stereo partly drawn) [Example 93, 3-hydroxy-5-(4-(((R)-4-(p-tolyloxy)-2,3-dihydro-1H-inden-1-yl)oxy)phenyl)isothiazole 1-oxide] | < 300
